{
  "source": "patent US20070110720A1",
  "about": "“Vectors, mutant viruses and methods for generating mutant viruses” (priority 2003, published 2007)",
  "key": {"A2780 xenografts": {"system": "A2780 xenografts", "assay": "Naked DNA experiment: CMV-ntr plasmid and CB1954 in xenograft tumours", "format": "in vivo, mice", "details": "single agent: CMV-ntr 0.2 mg DNA intratumoural Day 0, or CB1954 80 mg/kg intra-peritoneal Day 2", "procedure": "In order to check the alterations in tumour growth are due to the virus itself and not a result of the CMV-ntr plasmid DNA that had been introduced to the HSV 1716 virus, an experiment was set up looking at the effect of the CMV-ntr plasmid DNA alone and in combination with the prodrug CB1954.\nMice were randomised into treatment groups of 6 animals each when tumour diameters are approximately 5 mm (this is Day 0). […] Two groups of mice were administered CMV-ntr plasmid by direct intratumoural injection at a dose of 0.2 mg DNA per injection. One of these groups was then administered with a single dose of 80 mg/kg of CB1954 on Day 2 by intra-peritoneal injection. […] Animals were weighed daily (FIG. 23) and daily caliper measurements performed until the tumour sizes were in the region of 20 mm by 20 mm. Tumour volumes were estimated from these measurements (volume=[…]) (FIG. 24). In addition any toxicity from these administered agents was determined."}, "confluent 3T6 cells": {"system": "confluent 3T6 cells", "format": "cell-based", "details": "50 μM CB1954 alone"}, "[1]": {"assay": "Scheduling experiment: tolerability of injections", "format": "in vivo, athymic nude mice", "details": "80 mg/kg intra-peritoneal in 10% acetone/peanut oil", "procedure": "(§1) The treatment groups were administered with a single direct intratumoural injection of the virus and dose determined for that group. The virus was diluted PBS+10% serum. ‘No virus’ control groups received an intratumoural injection of 100 μl of PBS+10% serum. This day was designated as Experimental Day 0.\nSome tumours bleed slightly after injection but not to a great degree. […] In all the tumours that bleed slightly, the following day the healing process had begun and within 3-5 days there was little evidence of any puncture wound on any tumour.\n(§2) Injections of CB1954 were given to the appropriate groups at days 2, 10 and 15. A dose of 80 mg/kg—the equivalent of approx. 2 mg per mouse—was given. The powdered form of the CB1954 drug (from Sigma) was dissolved in acetone to 10% of the final volume (10 μl per 2 mg). The volume was then made up to 2 mg CB1954 in 100 μl using peanut oil. A syringe was used to mix the drug as peanut oil is thick and viscous. The drug was made up fresh every time.\n(§3) The appropriate groups were then injected intra-peritoneal with this solution. Control groups which were not receiving drug were injected intra-peritoneal with a 100 μl solution of 10% acetone in peanut oil."}, "A2780 xenograft": {"system": "A2780 xenograft", "assay": "Scheduling experiment: tumour volume after virus and CB1954", "format": "in vivo, athymic nude mice", "procedure": "Mice were randomized into treatment groups (treatment regimes shown in Table 2) of 3 animals when tumour diameters were approximately 5 mm (tumour volume […]).\nas §1, §2, §3"}, "C8161 cells": {"system": "C8161 cells", "format": "cell-based, human", "details": "50 μM CB1954 alone"}},
  "note": "“Also recorded” adds a separate entry of the source.",
  "data": [
    {"smiles": "NC(=O)c1cc(N2CC2)c([N+](=O)[O-])cc1[N+](=O)[O-]", "note": "[CB1954]", "values": [
      {"measurement": "anti-tumour activity as determined by tumour regression", "setting": "A2780 xenografts", "value": "neither the CMV-ntr alone, CB1954 alone or the combination of both CMV-ntr and CB1954, has any anti-tumour activity"},
      {"measurement": "cell death", "setting": "confluent 3T6 cells", "value": "no effect; also recorded: does not result in any significant cell death"},
      {"measurement": "body weight after intra-peritoneal injection", "setting": "[1]", "value": "did not lose any body weight"},
      {"measurement": "swelling or irritation at the site of injection", "setting": "[1]", "value": "No swelling or irritation"},
      {"measurement": "effect on tumour growth", "setting": "A2780 xenograft; CB1954 alone, 80 mg/kg intra-peritoneal, no virus (groups 5, 6, 7, 13)", "value": "little effect on tumour growth"},
      {"measurement": "tumour growth delay by timing of prodrug", "setting": "A2780 xenograft; CB1954 given Day 2 post viral injection versus Day 10", "value": "tumour growth was not delayed as much as if the drug was given at a later date"},
      {"measurement": "cell death", "setting": "C8161 cells", "value": "no effect"}
    ]}
  ]
}
